Data as given in PubChem BioAssay (NCI).
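Exposure lasted 48 hours, with cells grown in 96-well plates and compounds tested at five concentrations. At the TGI there is no net growth.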

Assays:
Assay in all cases: growth of human tumour cells (NCI), 48 h
[1] = tested on: COLO 205 colon
[2] = tested on: SNB-75 CNS
[3] = tested on: SF-295 CNS
[4] = tested on: SK-MEL-2 melanoma
[5] = tested on: RXF 393 renal
[6] = tested on: PC-3 prostate
[7] = tested on: OVCAR-4 ovarian
[8] = tested on: MDA-MB-231 breast
[9] = tested on: IGROV1 ovarian
[10] = tested on: UO-31 renal
[11] = tested on: UACC-257 melanoma
[12] = tested on: OVCAR-3 ovarian
[13] = tested on: MCF7 breast
[14] = tested on: 786-0 renal
[15] = tested on: HT29 colon
[16] = tested on: HS 578T breast
[17] = tested on: CCRF-CEM leukemia
[18] = tested on: HCT-116 colon
[19] = tested on: NCI-H460 lung
[20] = tested on: HOP-62 NSCLC
[21] = tested on: HOP-92 NSCLC
[22] = tested on: EKVX NSCLC
[23] = tested on: MDA-N
[24] = tested on: K-562 leukemia
[25] = tested on: OVCAR-8 ovarian
[26] = tested on: SW-620 colon
[27] = tested on: A498 renal
[28] = tested on: NCI-H522 lung
[29] = tested on: DU-145 prostate
[30] = tested on: MOLT-4 leukemia
[31] = tested on: MDA-MB-435
[32] = tested on: SN12C renal
[33] = tested on: SNB-19 CNS
[34] = tested on: NCI-H226 lung
[35] = tested on: SK-MEL-5 melanoma
[36] = tested on: CAKI-1 renal
[37] = tested on: U251 CNS
[38] = tested on: TK-10 renal
[39] = tested on: A549 NSCLC
[40] = tested on: M14 melanoma
[41] = tested on: RPMI-8226 leukemia
[42] = tested on: NCI-H23 lung
[43] = tested on: KM12 colon
[44] = tested on: SR leukemia
[45] = tested on: HCT-15 colon
[46] = tested on: SF-268 CNS
[47] = tested on: HCC-2998 colon
[48] = tested on: T-47D breast
[49] = tested on: HL-60(TB) leukemia
[50] = tested on: SK-OV-3 ovarian
[51] = tested on: OVCAR-5 ovarian
[52] = tested on: SF-539 CNS
[53] = tested on: ACHN renal
[54] = tested on: BT-549 breast
[55] = tested on: NCI/ADR-RES ovarian
[56] = tested on: UACC-62 melanoma
[57] = tested on: SK-MEL-28 melanoma
[58] = tested on: LOX IMVI melanoma
[59] = tested on: MALME-3M melanoma

Measured: TGI

CC(=O)OC1[C@@H](OC(C)=O)CN(OCc2ccccc2)C[C@H]1OC(C)=O (stereo partly specified)
76.4 µM: [50]
not listed: [59]
> 100 µM: all other assays above

C#C/C=C/CC1OC(C(Br)CC)CC(Br)C2CC1O2 (stereo unspecified)
21.1 µM: [28]
14.6 µM: [9]
24.8 µM: [14]
3.39 µM: [58]
25.7 µM: [59]
58.6 µM: [21]
not listed: [10]
> 100 µM: all other assays above
